# Like-named read-outs stand apart in the source and are kept apart here.
# Assays:
# [1] = system: H9 (acute lymphoblastic leukemia, ALL); assay: MTT growth inhibition of leukemia cells, 72 h; assay type: cell-based, human; conditions: H9, 72 h
# Method in brief: (§1)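 Leukemia cells were seeded at 6000 per well in RPMI-1640 with 10% fetal bovine serum. Tanshinone I derivatives, from 10 mg/mL DMSO stocks diluted in medium, were added at various concentrations on the following day. After 72 h at 37 °C under 5% CO2, viable cells were measured by MTT.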
# [2] = system: Jurkat (acute lymphoblastic leukemia, ALL); assay: MTT growth inhibition of leukemia cells, 72 h; assay type: cell-based, human; conditions: for IC50 / IC90: 72 h
# Method in brief: as §1
# [3] = system: K562/adr (drug-resistant, chronic myeloid leukemia, CML); assay: MTT growth inhibition of leukemia cells, 72 h; assay type: cell-based, human
# Method in brief: as §1
# [4] = system: Kasumi-1 (acute myeloid leukemia M2 type, AML-M2); assay: MTT growth inhibition of leukemia cells, 72 h; assay type: cell-based, human; conditions: Kasumi-1, 72 h
# Method in brief: as §1
# [5] = system: NB4 (acute promyelocytic leukemia, AML); assay: MTT growth inhibition of leukemia cells, 72 h; assay type: cell-based, human; conditions: NB4, 72 h
# Method in brief: as §1
# [6] = system: RPMI8226 (multiple myeloma); assay: MTT growth inhibition of multiple myeloma cells, 72 h; assay type: cell-based, human; conditions: RPMI 8226, 72 h
# Method in brief: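 RPMI8226 myeloma cells, 6000 per well in 1640 medium with 10% FBS, exposed to compounds at a range of concentrations (diluted from 10 mg/mL DMSO stock) for 72 h at 37° C, 5% CO2. Viable cells then determined by MTT.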
# [7] = system: A549 (human lung cancer); assay: MTT growth inhibition of human solid tumor cells, 72 h; assay type: cell-based; conditions: A549, 72 h
# Method in brief: (§2)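 Tanshinone I and its aminated or esterified methylene derivatives were tested on cells grown in 10% FBS high-glucose DMEM, seeded at 4000 per well and incubated at 37° C with 5% CO2 for 24 h before treatment.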
# [8] = system: Becap37 (human breast cancer cell); assay: as above; assay type: cell-based; conditions: Becap-37, 72 h
# Method in brief: as §2
# [9] = system: CNE (nasopharyngeal carcinoma cell); assay: as above; assay type: cell-based
# Method in brief: as §2
# [10] = system: CaES-17 (esophageal cancer cell); assay: as above; assay type: cell-based; conditions: for IC50 / IC90: CaEs-17, 72 h
# Method in brief: as §2
# [11] = system: Hela (human cervical cancer cell); assay: as above; assay type: cell-based; conditions: 72 h
# Method in brief: as §2
# [12] = system: Hep G2 (human liver cancer cell); assay: as above; assay type: cell-based; conditions: Hep G2, 72 h
# Method in brief: as §2
# [13] = system: Hep-2 (laryngeal carcinoma); assay: as above; assay type: cell-based
# Method in brief: as §2
# [14] = system: MG63 (osteosarcoma); assay: as above; assay type: cell-based; conditions: MG-63, 72 h
# Method in brief: as §2
# [15] = system: MGC 803 (human gastric cancer cell); assay: as above; assay type: cell-based; conditions: MGC-803, 72 h
# Method in brief: as §2
# [16] = system: PANC-1 (pancreatic cancer); assay: as above; assay type: cell-based; conditions: for IC50 / IC90: PANC-1, 72 h
# Method in brief: as §2
# [17] = system: PC-3 (prostate cancer); assay: as above; assay type: cell-based; conditions: PC-3, 72 h
# Method in brief: as §2
# [18] = system: RKO (human colon adenocarcinoma cell); assay: as above; assay type: cell-based
# Method in brief: as §2
# [19] = system: SK-OV-3 (ovarian cancer cell); assay: as above; assay type: cell-based; conditions: SK-OV-3, 72 h
# Method in brief: as §2
# [20] = system: U87 MG (malignant glioma cell); assay: as above; assay type: cell-based; conditions: U87-MG, 72 h
# Method in brief: as §2
# [21] = system: Hep G2 cells; conditions: in vitro, literature; cited from earlier work
# [22] = system: tumor-bearing nude mice; conditions: literature; cited from earlier work
# [23] = system: SGC-7901 human gastric adenocarcinoma cells; conditions: concentration dependent within a certain range, literature; cited from earlier work
# [24] = background statement; cited from earlier work
# [25] = background statement; cited from earlier work; remark: listed apart in the source
# [26] = Homo sapiens, K562/Adr, read-out: IC50
# [27] = Homo sapiens, K562/Adr, read-out: IC90
# [28] = Homo sapiens, CaEs17, read-out: IC50
# [29] = Homo sapiens, CaEs17, read-out: IC90
# [30] = Homo sapiens, HeLa, read-out: IC50
# [31] = Homo sapiens, HeLa, read-out: IC90
# [32] = Homo sapiens, HepG2, read-out: IC50
# [33] = Homo sapiens, HepG2, read-out: IC90
# [34] = Homo sapiens, HEp-2, 72 h, read-out: IC50
# [35] = Homo sapiens, HEp-2, 72 h, read-out: IC90
# [36] = Homo sapiens, U-87 MG, read-out: IC50
# [37] = Homo sapiens, U-87 MG, read-out: IC90
structure (smiles),measurement,setting,value
Cc1c(CN(C)CCO)oc2c1C(=O)C(=O)c1c-2ccc2c(C)cccc12 [BS-TA-B17],IC50,"[1]; Homo sapiens, read-out: IC50",0.45 µg/mL
same,IC90,"[1]; Homo sapiens, read-out: IC90",0.96 µg/mL
same,IC50,"[2]; Homo sapiens, read-out: IC50",0.16 µg/mL
same,IC90,"[2]; Homo sapiens, read-out: IC90",0.36 µg/mL
same,improvement of anti-Jurkat activity as compared with tanshinone I,[2]; vs tanshinone I,more than 10 fold
same,IC50,[3]; [26],0.31 µg/mL
same,IC90,[3]; [27],0.86 µg/mL
same,IC50,"[4]; Homo sapiens, read-out: IC50",0.12 µg/mL
same,IC90,"[4]; Homo sapiens, read-out: IC90",0.23 µg/mL
same,IC50,"[5]; Homo sapiens, read-out: IC50",0.14 µg/mL
same,IC90,"[5]; Homo sapiens, read-out: IC90",0.41 µg/mL
same,IC50,"[6]; Homo sapiens, read-out: IC50",0.39 µg/mL
same,IC90,"[6]; Homo sapiens, read-out: IC90",0.8 µg/mL
same,IC50,"[7]; Homo sapiens, read-out: IC50",0.83 µg/mL
same,IC90,"[7]; Homo sapiens, read-out: IC90",3.13 µg/mL
same,IC50,"[8]; Homo sapiens, read-out: IC50",0.76 µg/mL
same,IC90,"[8]; Homo sapiens, read-out: IC90",1.77 µg/mL
same,IC50,"[9]; Homo sapiens, read-out: IC50",1.4 µg/mL
same,IC90,"[9]; Homo sapiens, read-out: IC90",3 µg/mL
same,improvement of anti-CaES-17 activity as compared with tanshinone I,"[10]; CaES-17, vs tanshinone I",more than 7 fold
same,IC50,[10]; [28],0.45 µg/mL
same,IC90,[10]; [29],0.91 µg/mL
same,IC50,[11]; [30],0.67 µg/mL
same,IC90,[11]; [31],1.8 µg/mL
same,IC50,[12]; [32],0.56 µg/mL
same,IC90,[12]; [33],1.82 µg/mL
same,IC50,[13]; [34],0.87 µg/mL
same,IC90,[13]; [35],2.79 µg/mL
same,IC50,"[14]; Homo sapiens, read-out: IC50",0.78 µg/mL
same,IC90,"[14]; Homo sapiens, read-out: IC90",1.76 µg/mL
same,IC50,"[15]; Homo sapiens, read-out: IC50",0.37 µg/mL
same,IC90,"[15]; Homo sapiens, read-out: IC90",2.94 µg/mL
same,IC50,"[16]; Homo sapiens, read-out: IC50",0.27 µg/mL
same,IC90,"[16]; Homo sapiens, read-out: IC90",2.6 µg/mL
same,improvement of anti-PANC-1 activity as compared with tanshinone I,"[16]; PANC-1, vs tanshinone I",more than 10 fold
same,IC50,"[17]; Homo sapiens, read-out: IC50",0.63 µg/mL
same,IC90,"[17]; Homo sapiens, read-out: IC90",2 µg/mL
same,IC50,"[18]; Homo sapiens, read-out: IC50",0.125 µg/mL
same,IC90,"[18]; Homo sapiens, read-out: IC90",1.3 µg/mL
same,IC50,"[19]; Homo sapiens, read-out: IC50",1.44 µg/mL
same,IC90,"[19]; Homo sapiens, read-out: IC90",1.97 µg/mL
same,IC50,[20]; [36],0.76 µg/mL
same,IC90,[20]; [37],1.82 µg/mL
C#CCNCc1oc2c(c1C)C(=O)C(=O)c1c-2ccc2c(C)cccc12 [BS-TA-B21],IC50,"[1]; Homo sapiens, read-out: IC50",2.2 µg/mL
same,IC90,"[1]; Homo sapiens, read-out: IC90",5.9 µg/mL
same,IC50,"[2]; Homo sapiens, read-out: IC50",3.41 µg/mL
same,IC90,"[2]; Homo sapiens, read-out: IC90",9.55 µg/mL
same,IC50,[3]; [26],1.3 µg/mL
same,IC90,[3]; [27],2.73 µg/mL
same,IC50,"[4]; Homo sapiens, read-out: IC50",0.83 µg/mL
same,IC90,"[4]; Homo sapiens, read-out: IC90",1.8 µg/mL
same,IC50,"[5]; Homo sapiens, read-out: IC50",1.53 µg/mL
same,IC90,"[5]; Homo sapiens, read-out: IC90",5.46 µg/mL
same,IC50,"[6]; Homo sapiens, read-out: IC50",5.78 µg/mL
same,IC90,"[6]; Homo sapiens, read-out: IC90",10.5 µg/mL
same,IC50,"[7]; Homo sapiens, read-out: IC50",1.8 µg/mL
same,IC90,"[7]; Homo sapiens, read-out: IC90",10 µg/mL
same,IC50,"[8]; Homo sapiens, read-out: IC50",6.73 µg/mL
same,IC90,"[8]; Homo sapiens, read-out: IC90",15.1 µg/mL
same,IC50,"[9]; Homo sapiens, read-out: IC50",5.99 µg/mL
same,IC90,"[9]; Homo sapiens, read-out: IC90",79 µg/mL
same,IC50,[10]; [28],8.71 µg/mL
same,IC90,[10]; [29],14.2 µg/mL
same,IC50,[11]; [30],3.3 µg/mL
same,IC90,[11]; [31],7.9 µg/mL
same,IC50,[12]; [32],7.3 µg/mL
same,IC90,[12]; [33],25.8 µg/mL
same,IC50,[13]; [34],5.16 µg/mL
same,IC90,[13]; [35],23.7 µg/mL
same,IC50,"[14]; Homo sapiens, read-out: IC50",4.68 µg/mL
same,IC90,"[14]; Homo sapiens, read-out: IC90",15.3 µg/mL
same,IC50,"[15]; Homo sapiens, read-out: IC50",7.01 µg/mL
same,IC90,"[15]; Homo sapiens, read-out: IC90",17.3 µg/mL
same,IC50,"[16]; Homo sapiens, read-out: IC50",1.14 µg/mL
same,IC90,"[16]; Homo sapiens, read-out: IC90",7.28 µg/mL
same,IC50,"[17]; Homo sapiens, read-out: IC50",7.3 µg/mL
same,IC90,"[17]; Homo sapiens, read-out: IC90",15.1 µg/mL
same,IC50,"[18]; Homo sapiens, read-out: IC50",2.46 µg/mL
same,IC90,"[18]; Homo sapiens, read-out: IC90",27.9 µg/mL
same,IC50,"[19]; Homo sapiens, read-out: IC50",> 16 µg/mL
same,IC90,"[19]; Homo sapiens, read-out: IC90",> 16 µg/mL
same,IC50,[20]; [36],6.79 µg/mL
same,IC90,[20]; [37],21.3 µg/mL
"Cc1coc2c1C(=O)C(=O)c1c-2ccc2c(C)cccc12 [TA, 1,6-dimethyl-phenanthreno [1,2-b]furan-10,11-diketone, reference compound]",IC50,[1],3.5 µg/mL
same,IC90,[1],13.06 µg/mL
same,IC50,[2],1.74 µg/mL
same,IC90,[2],8.42 µg/mL
same,IC50,[3]; K562/ADR,0.88 µg/mL
same,IC90,[3]; K562/ADR,4.17 µg/mL
same,IC50,[4],0.99 µg/mL
same,IC90,[4],3.62 µg/mL
same,IC50,[5],0.98 µg/mL
same,IC90,[5],2.50 µg/mL
same,IC50,[6],0.96 µg/mL
same,IC90,[6],10.86 µg/mL
same,IC50,[7],4.03 µg/mL
same,IC90,[7],17.29 µg/mL
same,IC50,[8],3.03 µg/mL
same,IC90,[8],>16 µg/mL
same,IC50,[9],7.4 µg/mL
same,IC90,[9],>16 µg/mL
same,IC50,[10],3.18 µg/mL
same,IC90,[10],16.00 µg/mL
same,IC50,[11]; Hela,4 µg/mL
same,IC90,[11]; Hela,>16 µg/mL
same,IC50,[12],2.19 µg/mL
same,IC90,[12],22.13 µg/mL
same,IC50,"[13]; HeP-2, 72 h",3.15 µg/mL
same,IC90,"[13]; HeP-2, 72 h",>16 µg/mL
same,IC50,[14],0.96 µg/mL
same,IC90,[14],>16 µg/mL
same,IC50,[15],1.62 µg/mL
same,IC90,[15],9.26 µg/mL
same,IC50,[16],2.7 µg/mL
same,IC90,[16],>16 µg/mL
same,IC50,[17],6.63 µg/mL
same,IC90,[17],10.57 µg/mL
same,IC50,[18],1.83 µg/mL
same,IC90,[18],>16 µg/mL
same,IC50,[19],>16 µg/mL
same,IC90,[19],>16 µg/mL
same,IC50,[20],6.36 µg/mL
same,IC90,[20],14.63 µg/mL
same,proliferation of Hep G2 cells,[21],can inhibit the proliferation of Hep G2 cells
same,tumor growth in tumor-bearing nude mice,[22],can inhibit the tumor growth in the mice
same,growth of SGC-7901 cells cultured in vitro,[23],significant inhibitory effect
same,solubility in water,[24],poor solubility in water
same,in vivo bioavailability,[25],low in vivo bioavailability

# — US9328083B2, “2-aminated methylene or 2-esterified methylene tanshinone derivatives, and preparation method and application thereof” (HANGZHOU BENSHENG PHARMACEUTICAL CO., LTD., priority 2011, dated 2016)
